The values below come from US20250162986A1, “Compounds and compositions for neurodegenerative diseases” (Universidade Nova de Lisboa, priority 2022, published 2025).

Structures can show the parent of a compound that is named as a salt.

Common to all, as to type: cell-based
The subject of assay [1] is N9 mouse microglia cell line. As to the kind of experiment: LPS-induced TNF-α release in microglia cells (ELISA). Particulars: for activity at 5 µM: Mus musculus, Microglia, read-out: TNFα release (Fold-change relative to LPS); for release of TNF-α (FIG. 1): 100 nM, 2, 4 and 6 hours pre-incubation; for attenuation of TNFα release at lower concentrations: at and below 100 nanomolar (data not shown). On the procedure:
(§1) The “N9” murine microglia cell line was cultured in EMEM (Eagle Minimum Essential Media) supplemented with 10% (v/v) FBS, […] L-glutamine, 1% (v/v) NEAA and maintained at 37° C., 5% (v/v) CO2. Experiments were performed on 24-well plates. Compounds were incubated in cells for the indicated amount of time (2, 4 or 6 hours) before the addition of the indicated inflammatory stimuli (Lipopolysaccharide (LPS) or TNFα:IFNγ).
The experiment was conducted in vitro using N9 mouse microglia cell line. Phenolic metabolites or derived-thereof were pre-incubated for 6 hours at 5 micromolar with microglia cells in cell media. Afterwards cells were washed and incubated with lipopolysaccharides for 24 hours. At the end of this period cell media was collected and the presence of TNF-α analyzed using ELISA, thus showing the results as shown in Table 1.
In an embodiment compounds resorcinol-sulfate and phloroglucinol-sulfate were pre-incubated at 100 nanomolar for 2, 4, 6 hours with the cells in the cell media. Afterwards cells were washed and incubated with lipopolysaccharides for 24 hours. At the end of this period cell media was collected and the presence of TNF-α analyzed using ELISA, thus showing the results as substantially depicted in FIG. 1.
Background: ELISA stands for enzyme-linked immunosorbent assay.

The subject of assay [2] is LUHMES cells (human dopaminergic cell line). Description: Cell viability and ATP levels after MPP+ oxidative insult. Particulars: 24 hours pre-treatment at 5 μM, then 24 hours MPP+; for ATP levels (FIG. 5B): luciferase; for cell viability (metabolic capacity) (FIG. 5A): resazurin. As to the method: The LUHMES cells (human dopaminergic cell line) were cultured in advanced DMEM-F12 ([…]) at 37° C. with 5% (v/v) CO2. Experiments were performed in 24 well plates. Compounds were incubated for 24 hours before addition of Parkinson inducing toxin MPP+ was added to cells.
The experiment was conducted in vitro using “LUHMES”, human dopaminergic cell line at 37° C. with 5% CO2. Phenolic metabolites were incubated for 24 hours at 5 μM. After this period cells were washed and incubated (or not) with MPP+ ([…]) for 24 hours in order to produce the oxidative insult, that mimics the dopaminergic lesions found in several neurodegenerative diseases, namely in Parkinson's Disease brain. Afterwards cell medium was replaced with new medium including the cell metabolic dyes: resazurin for 2 hours or luciferase for 30 min. Colour development was measured by fluorescence and luminescence respectively, in a Synergy (Biotek) plate reader, thus showing the results as substantially depicted in FIG. 5.

In assay [3] the test system is N9 mouse microglia cell line. Description: TNF-α and IFNγ-induced production of multiple cytokines in microglia cells (flow cytometry, LEGENDplex). Particulars: 100 nM, 6 hours pre-incubation, then 24 hours TNF-α 10 nM plus IFNγ 1 nM. On the procedure:
as §1
The experiment was conducted in vitro using N9 mouse microglia cell line. Phenolic metabolites were pre-incubated for 6 hours in the regular cell media at the indicated concentration. Afterwards cells were washed and incubated with TNF-α 10 nM plus IFNγ 1 nM for 24 hours. At the end of this period cell media was collected and the presence of various cytokines analyzed using flow cytometry (LEGENDplex™ Mouse Macrophage/Microglia Panel), thus showing the results as substantially depicted in FIG. 3.
In general terms: In flow cytometry, cells or beads pass a laser one at a time.

Assay [4] deals with N9 mouse microglia cell line. Description: LPS-induced production of multiple cytokines in microglia cells (flow cytometry, LEGENDplex). Particulars: 100 nM, 6 hours pre-incubation, then 24 hours lipopolysaccharides. On the procedure: as §1
The experiment was conducted in vitro using N9 mouse microglia cell line. Phenolic metabolites were pre-incubated for 6 hours in the cell media at the indicated concentration. Afterwards cells were washed and incubated with lipopolysaccharides for 24 hours. At the end of this period cell media was collected and the presence of various cytokines analyzed using flow cytometry (LEGENDplex™ Mouse Macrophage/Microglia Panel), thus showing the results as substantially depicted in FIG. 2.

Where [5] appears, read: 5 micromolar, 6 hours pre-incubation, then 24 hours lipopolysaccharides, ELISA.
[6] abbreviates: then 24 hours lipopolysaccharides.

Consider `O=S(=O)(O)Oc1ccc(CO)c(O)c1O` [2,3-dihydroxy-4-(hydroxymethyl)phenyl hydrogen sulfate], for which the activity at 5 µM in assay [1] (setting [5]) was found to be 48 ± 7%.
With `Cc1ccc(OS(=O)(=O)O)c(O)c1O` [2,3-dihydroxy-4-methylphenyl hydrogen sulfate], the activity at 5 µM in assay [1] (setting [5]) came out at 45 ± 4%.
In the case of `COc1cccc(OS(=O)(=O)O)c1O` [2-hydroxy-3-methoxyphenyl hydrogen sulfate], the activity at 5 µM in assay [1] (setting [5]) is 65 ± 11%.
As for `COc1c(O)cccc1OS(=O)(=O)O` [3-hydroxy-2-methoxyphenyl hydrogen sulfate], in assay [1] (setting [5]), the activity at 5 µM is 65 ± 8%.
For `COc1cc(O)cc(OS(=O)(=O)O)c1` [3-hydroxy-5-methoxyphenyl hydrogen sulfate], the activity at 5 µM in assay [1] (setting [5]) came to 57 ± 6%.
For the compound `COc1cc(C(=O)O)ccc1OS(=O)(=O)O` [3-methoxy-4-(sulfooxy)benzoic acid], the activity at 5 µM in assay [1] (setting [5]) was determined as 56 ± 16%.
For `COc1c(O)cc(C(=O)O)cc1OS(=O)(=O)O` [4-O-methyl gallic acid-3-sulfate], the “TNFα release (Fold-change relative to LPS)” value in assay [1] (setting [5]) is 0.50 ± 0.07 Fold-change relative to LPS.
As for `O=S(=O)(O)Oc1cc(O)cc(O)c1` [Phloroglucinol-sulfate, 3,5-dihydroxyphenyl hydrogen sulfate], the “release of TNF-α (FIG. 1)” value in assay [1] (setting [6]) was “reduction in release of TNF-α”. The activity at 5 µM in assay [1] (setting [5]) was 57 ± 6%. In addition, the “attenuation of TNFα release at lower concentrations” value in assay [1] is on record as “capability to attenuate TNFα release at lower concentrations”. Also, in assay [2], the “ATP levels (FIG. 5B)” value is reported as “protective effects” and the “cell viability (metabolic capacity) (FIG. 5A)” value is reported as “protective effects”. In assay [3], the “multiple cytokines (TNF-α, CCL22, IL-10, CCL17, IL-1β, CXCL1, G-CSF, IL-6, IL-18, TGFβ1, IL23, IL-12p40, IL-12p70) (FIG. 3)” value was “reduction in multiple cytokines”. In assay [4], the “multiple cytokines (G-CSF, TNF-α, IL-6, IL-10, IL-1β, CCL17, IL-12p40, TGFβ1, CCL22, IL18, CXCL1) (FIG. 2)” value is on record as “reduction in multiple cytokines”.
Take `O=S(=O)(O)Oc1cccc(O)c1` [Resorcinol-sulfate, 3-hydroxyphenyl hydrogen sulfate]: the “release of TNF-α (FIG. 1)” value in assay [1] (setting [6]) is listed as “reduction in release of TNF-α”. Also, in assay [1] (setting [5]), the activity at 5 µM came to 58 ± 13%. Further, the “attenuation of TNFα release at lower concentrations” value in assay [1] is listed as “capability to attenuate TNFα release at lower concentrations”. Also, in assay [2], the “ATP levels (FIG. 5B)” value is on record as “protective effects” and the “cell viability (metabolic capacity) (FIG. 5A)” value is “protective effects”. For the same compound, the “multiple cytokines (TNF-α, CCL22, IL-10, CCL17, IL-1β, CXCL1, G-CSF, IL-6, IL-18, TGFβ1, IL23, IL-12p40, IL-12p70) (FIG. 3)” value in assay [3] is reported as “reduction in multiple cytokines”. Besides, the “multiple cytokines (G-CSF, TNF-α, IL-6, IL-10, IL-1β, CCL17, IL-12p40, TGFβ1, CCL22, IL18, CXCL1) (FIG. 2)” value in assay [4] is reported as “reduction in multiple cytokines”.
